Columns and labels:
CD31 = assay: Expression level of CD31 by immunohistochemical analysis of cancer cell; type: in vivo, mice; details: cancer tissue after dosing voacangine or sunitinib; FIGS. 14 and 15
Protocol: Immunohistochemical analysis was performed to find an effect of voacangine against pathological angiogenesis of a cancer cell.
CD31 or Platelet Endothelial Cell Adhesion Molecule-1 (PECAM-1) are known as being expressed on the surface of a hematoblast such as platelet and naive T cell, natural killer cell, granulocyte, monocyte and cell-to-cell junction of endothelial as transmembrane glycoprotein of 130 kDa type belonging to immunoglobulin super-family.

[1] = Voacangine distribution in tumors, livers and kidneys by MALDI imaging mass spectrometry; type: in vivo, mice; details: four hours after treating voacangine, FIG. 5
Source text: After surgically removing tumors, livers, and kidneys from mouse models after four hours after treating voacangine in Embodiment 3, a specimen was manufactured to perform MALDI mass spectrometry and immunofluorescence with H&E straining and the result was shown in FIG. 5.

[2] = system: Human Umbilical Vascular Endothelial Cell (HUVEC); assay: In vitro and in vivo angiogenesis inhibition (cell-based HUVEC screening); details: nontoxic dose, earlier finding of the inventors
Source text: The inventors screened 300 crude extracts which are taken from a natural plant that is effective in proliferating Human Umbilical Vascular Endothelial Cell (HUVEC) by using a cell-based screening technique.

[3] = system: capsaicin-induced contraction; details: isolated mouse rectum; J. Nat. Med. 65 (2011) 157-165; cited from earlier work
HIF-1α = assay: Expression level of HIF-1α; details: earlier finding of the inventors
VEGF = assay: Expression level of VEGF, target gene of HIF-1α; details: earlier finding of the inventors
U87MG = assay: Variation of cancer size in U87MG cancer-diseased animal model; details: U87MG xenograft mice; voacangine 10 mg/kg i.p. every day for 12 days; compared with vehicle and sunitinib 40 mg/kg p.o.; FIG. 4
Protocol: A cell strain U87MG, which is a kind of human glioglastoma multiforme purchased from American Type Culture Collection (ATCC), was cultivated in a medium to which Phosphate-Buffered Saline (PBS): Matrigel (1:1) is added.
The cultivated cell strain U87MG of 5×10^6 was merged with PBS:Matrigel (1:1) of 100 μl and the mixture was injected into athymic nude mice for two weeks to induce growth of a cancer cell.

Structure (SMILES)	CD31 expression (CD31)	localization of voacangine in livers, kidneys and cancer cells [1]	angiogenesis inhibition [2]	capsaicin-induced contraction [3]	expression level of HIF-1α (HIF-1α)	expression level of VEGF (VEGF)	cancer size after dosage (U87MG)
CCN(CC)CCNC(=O)c1c(C)[nH]c(/C=C2\C(=O)Nc3ccc(F)cc32)c1C [sunitinib, Sunitinib malate, reference compound]	greatly reduced in expression						
CC[C@H]1C[C@@H]2C[N@]3CCc4c([nH]c5ccc(OC)cc45)[C@](C(=O)OC)(C2)C13 [voacangine]	greatly reduced in expression	more concentrated in the cancer cells than the livers and kidneys	inhibiting in vitro and in vivo angiogenesis by a nontoxic dose	dose-dependently inhibiting	dose-dependently inhibited	dose-dependently inhibited	greatly reduced

From patent US10591487B2, “Small molecule detection and localization method based on MALDI imaging mass spectrometry” (INDUSTRY-ACADEMIC COOPERATION FOUNDATION, YONSEI UNIVERSITY, priority 2015, dated 2020)
